The text below walks through data of PubChem BioAssay (NCI).

Among the test systems are CAKI-1 renal; CCRF-CEM leukemia; COLO 205 colon; EKVX NSCLC; HOP-62 NSCLC; K-562 leukemia; M14 melanoma; NCI-H226 lung; NCI-H460 lung; OVCAR-4 ovarian.
Holding throughout (test): NCI anticancer screen, dose series, 48 h

Molecules are shown by their SMILES.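 A five-concentration, 48-hour dose response in 96-well plates underlies each endpoint, interpolated linearly between surrounding concentrations. The concentration for 50% growth inhibition is given as GI50. Definition used: TGI = concentration required for complete inhibition of growth.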

`O=C(NN1C(=O)CSC1c1ccc(Cl)cc1)c1[nH]c2ccc(F)cc2c1-c1ccccc1` (stereo not given): the GI50 with CAKI-1 renal is 5.07 µM; in the assay on CCRF-CEM leukemia it was 2.17 µM; in the assay on COLO 205 colon, 2.2 µM; in the assay with EKVX NSCLC it was 6.23 µM; in the assay with HOP-62 NSCLC, 2.34 µM; with K-562 leukemia, 2.43 µM. Besides, the GI50 in the assay with M14 melanoma was 2.5 µM; in the assay with NCI-H226 lung, 3.51 µM; in the assay with NCI-H460 lung, 2.81 µM; in the assay with OVCAR-4 ovarian, 6.3 µM. Further, the TGI in the assay with CAKI-1 renal came out at 17.2 µM; in the assay with CCRF-CEM leukemia, 5.85 µM; with COLO 205 colon it was 4.81 µM; in the assay on EKVX NSCLC it was 24.8 µM; in the assay with HOP-62 NSCLC it was 5.55 µM; in the assay on K-562 leukemia, 9.51 µM. In addition, the TGI in the assay on M14 melanoma came out at 6.45 µM; in the assay with NCI-H226 lung, 9.43 µM; in the assay on NCI-H460 lung it was 7.84 µM; with OVCAR-4 ovarian it was 24 µM.
Turning to `O=[N+]([O-])c1ccc(CS(=O)Cc2ccccc2)cc1` (stereo not given), the TGI with CAKI-1 renal, in the assay with CCRF-CEM leukemia, in the assay with COLO 205 colon, with EKVX NSCLC, in the assay on HOP-62 NSCLC and in the assay on K-562 leukemia was above 100 µM throughout. For the same molecule, the TGI in the assay on M14 melanoma, with NCI-H226 lung, with NCI-H460 lung and with OVCAR-4 ovarian was above 100 µM in each case.
Consider `Cc1ncc([N+](=O)[O-])n1CCNC(=O)CCCn1cnc([N+](=O)[O-])n1`, for which the TGI in the assay on CAKI-1 renal is above 100 µM; in the assay on CCRF-CEM leukemia it was above 100 µM; with COLO 205 colon, above 100 µM; with EKVX NSCLC, above 31.6 µM; in the assay on HOP-62 NSCLC it was above 100 µM; in the assay on K-562 leukemia, above 100 µM. Besides, the TGI in the assay on M14 melanoma, in the assay on NCI-H226 lung, with NCI-H460 lung and in the assay on OVCAR-4 ovarian was above 100 µM each time.
For the molecule `CN(C)C(=O)C1CCC(=C2C(=O)OC(C)(C)OC2=O)N1C` (stereo not given), the TGI in the assay on CAKI-1 renal, with CCRF-CEM leukemia, in the assay on COLO 205 colon, in the assay on EKVX NSCLC, with HOP-62 NSCLC and in the assay with K-562 leukemia was above 100 µM throughout. Further, the TGI with M14 melanoma, in the assay with NCI-H226 lung, with NCI-H460 lung and in the assay on OVCAR-4 ovarian was above 100 µM throughout.
